Test results published in US12043602B2, “Fendiline derivatives” (The Board of Regents of the University of Texas System, priority 2019, dated 2024).

Key:
[1] = tested on: MDCK cells co-expressing GFP-K-RASG12V and mCherry-CAAX; assay: Cytotoxicity in mislocalization screen (death of all cells in well); conditions: drug caused death of all cells in well at 30 μM
mGFP-K-RASG12V = mGFP-K-RASG12V (Homo sapiens (Human), UniProt P01116, G12V); assay: K-Ras mislocalization assay (confocal microscopy, Manders coefficient); type: cell-based; design: key to Emax: Manders coefficient: fraction of mCherry-CAAX co-localizing with GFP-K-Ras; conditions: for IC50 / Emax: MDCK cells; for IC50: 48 h treatment, read-out: IC50 (μM), KRASG12V mislocalization; for Emax: maximal effect, Manders coefficient, 48 h; for fold loss of potency to mislocalize KRAS: in comparison with 7
Description: Madine Darby Canine Kidney epithelial cells (MDCK) stably co-expressing mGFP-tagged full length oncogenic mutant K-Ras (GFP—K-RASG12V) or mGFP-LactC2 (peptide probe for phosphatidylserine) and mCherry-tagged to the amino acids 179-189 of H-RasC181S, C184S (mCherry-CAAX, localizes primarily to endomembranes) were grown in DMEM-high glucose/sodium pyruvate/10% FBS. The medium was supplemented with 1× Penicillin/Streptomycin for fluorescence microscopy assays, to avoid any microbial contamination from the test compounds added. KLE and Hec50 cells were maintained in DMEM-F-12 medium supplemented with 10% FBS. Hec-1A and Hec-1B cells were grown in McCoy's 5a medium supplemented with 10% FBS. ESS-1 cells were grown in RPMI 1640 medium supplemented with 20% FBS. MPanc96 cells were grown in DMEM supplemented with 10% FBS, MiaPaCa-2 cells in DMEM supplemented with 10% FBS and 2.5% horse serum and all other cell lines were grown in RPMI 1640 supplemented with 10% FBS. All cancer cell media were supplemented with ×Penicillin/Streptomycin. All cell lines were grown at 37° C. with 5% CO2.
MDCK co-expressing GFP—K-RASG12V or LactC2 and mCherry-CAAX were grown on coverslips, treated with 0.1% vehicle (DMSO) or various concentrations of drugs for 48 h, and fixed with 4% paraformaldehyde. The coverslips were mounted in mowiol and imaged by confocal microscopy (Nikon A1) using a 60× objective. Using ImageJ software v1.42q, images were converted to 8-bit, and a threshold to a control pixel of each image was set. As a measure of K-Ras/LactC2 mislocalization, the fraction of mCherry-CAAX co-localizing with mGFP-K-RASG12V was calculated using a Manders coefficient plugin downloaded from Wright Cell Image Facility. The fraction of mCherry-CAAX co-localizing with mGFP-RASG12V (Mander's coefficient) is proportional to K-Ras mislocalization.

Compound | Cytotoxic at 30 μM [1] | IC50 (mGFP-K-RASG12V) | Emax (mGFP-K-RASG12V) | fold loss of potency to mislocalize KRAS (mGFP-K-RASG12V) | Cytotoxic at 30 μM ([1]; listed as 11e) | Emax (mGFP-K-RASG12V; listed as 11e) | fold increase in KRAS mislocalization potency (mGFP-K-RASG12V; versus hit 7) | fold potency loss compared to 12e (mGFP-K-RASG12V; versus 12e) | KRAS PM localization inhibition activity (in words) (mGFP-K-RASG12V)
OC[C@H](c1ccccc1)N(CC=C(c1ccccc1)c1ccccc1)CC=C(c1ccccc1)c1ccccc1 [AVA72, reference compound] | No | 0.17 µM | 0.764 | – | – | – | – | – | –
C=CCN(CC=C(c1ccccc1)c1ccccc1)[C@H](C)c1ccc(OC)cc1 [NY0217, (R)-N-allyl-N-(1-(4-methoxyphenyl)ethyl)-3,3-diphenylprop-2-en-1-amine] | No | 13 µM | 0.47 | – | – | – | – | – | –
COc1ccc([C@@H](C)N(C)CC=C(c2ccccc2)c2ccccc2)cc1 [NY0218, (R)-N-(1-(4-methoxyphenyl)ethyl)-N-methyl-3,3-diphenylprop-2-en-1-amine] | No | 3.3 µM | 0.75 ± 0.01 | 7 fold | – | – | – | – | –
COc1ccc(CCN(CC=C(c2ccccc2)c2ccccc2)CC=C(c2ccccc2)c2ccccc2)cc1 [NY0220, N-(3,3-diphenylallyl)-N-(4-methoxyphenethyl)-3,3-diphenylprop-2-en-1-amine] | No | 3.65 µM | 0.605 | – | – | – | – | – | –
C(CN1CCc2ccccc2C1)=C(c1ccccc1)c1ccccc1 [NY0221, 2-(3,3-diphenylallyl)-1,2,3,4-tetrahydroisoquinoline] | No | 0.65 µM | 0.585 | – | – | – | – | – | –
COc1ccc([C@@H](C)N(CC=C(c2ccccc2)c2ccccc2)C(C)=O)cc1 [NY0222, (R)-N-(3,3-diphenylallyl)-N-(1-(4-methoxyphenyl)ethyl)acetamide] | Yes | 0.25 µM | 0.587 | – | – | – | – | – | –
COc1ccc([C@@H](C)N(CC=C(c2ccccc2)c2ccccc2)S(C)(=O)=O)cc1 [NY0223, (R)-N-(3,3-diphenylallyl)-N-(1-(4-methoxyphenyl)ethyl)methanesulfonamide] | No | 8.45 µM | 0.785 | – | – | – | – | – | –
COc1ccc(NC(=O)N(CC=C(c2ccccc2)c2ccccc2)[C@H](C)c2ccc(OC)cc2)cc1 [NY0224, (R)-1-(3,3-diphenylallyl)-3-(4-methoxyphenyl)-1-(1-(4-methoxyphenyl)ethyl)urea] | No | 0.64 µM | 0.622 | – | – | – | – | – | –
COc1ccc([C@@H](C)N(CC=C(c2ccccc2)c2ccccc2)C(=O)Oc2ccccc2)cc1 [NY0225, (R)-phenyl (3,3-diphenylallyl)(1-(4-methoxyphenyl)ethyl)carbamate] | Yes | 0.43 µM | 0.626 | – | – | – | – | – | –
COC(=O)CN(CC=C(c1ccccc1)c1ccccc1)[C@H](C)c1ccc(OC)cc1 [NY0228, (R)-methyl 2-((3,3-diphenylallyl)(1-(4-methoxyphenyl)ethyl)amino)acetate] | No | – | 0.705 | – | – | – | – | – | –
COc1ccc([C@@H](C)N(CC=C(c2ccccc2)c2ccccc2)CC(=O)O)cc1 [NY0229, (R)-2-((3,3-diphenylallyl)(1-(4-methoxyphenyl)ethyl)amino)acetic acid] | No | 6.39 µM | 0.522 | – | – | – | – | – | –
COc1ccc([C@@H](C)N(CC=C(c2ccccc2)c2ccccc2)CC(=O)N2CCN(C)CC2)cc1 [NY0232, (R)-2-((3,3-diphenylallyl)(1-(4-methoxyphenyl)ethyl)amino)-1-(4-methylpiperazin-1-yl)ethanone] | No | 1.1 µM | 0.73 ± 0.02 | – | – | – | – | – | –
COc1ccc([C@@H](C)N(CC=C(c2ccccc2)c2ccccc2)CC(=O)N2CCc3ccccc3C2)cc1 [NY0233, (R)-1-(3,4-dihydroisoquinolin-2(1H)-yl)-2-((3,3-diphenylallyl)(1-(4-methoxyphenyl)ethyl)amino)ethanone] | No | 3.56 µM | 0.522 | – | – | – | – | – | –
C#CCN(CC=C(c1ccccc1)c1ccccc1)[C@H](C)c1ccc(OC)cc1 [NY0234, (R)-N-(1-(4-methoxyphenyl)ethyl)-3,3-diphenyl-N-(prop-2-yn-1-yl)prop-2-en-1-amine] | No | 21.9 µM | 0.703 | – | – | – | – | – | –
C=CC(=O)N(CC=C(c1ccccc1)c1ccccc1)[C@H](C)c1ccc(OC)cc1 [NY0235, (R)-N-(3,3-diphenylallyl)-N-(1-(4-methoxyphenyl)ethyl)acrylamide] | No | 1.21 µM | 0.59 | – | – | – | – | – | –
C(CN1CCCc2ccccc21)=C(c1ccccc1)c1ccccc1 [NY0237, 1-(3,3-diphenylallyl)-1,2,3,4-tetrahydroquinoline] | No | 12.2 µM | 0.79 | – | – | – | – | – | –
COc1ccc([C@@H](C)N(CC=C(c2ccccc2)c2ccccc2)CCO)cc1 [NY0241, (R)-2-((3,3-diphenylallyl)(1-(4-methoxyphenyl)ethyl)amino)ethanol] | No | 0.2 µM | 0.72 ± 0.03 | – | did not show any cytotoxic | 0.72 | 2.5 fold | – | –
Fc1ccc2c(c1)CCCN2CC=C(c1ccccc1)c1ccccc1 [NY293, 1-(3,3-diphenylallyl)-6-fluoro-1,2,3,4-tetrahydroquinoline] | No | 2.3 µM | 0.910 | – | – | – | – | – | –
CC1CCc2ccccc2N1CC=C(c1ccccc1)c1ccccc1 (stereo not drawn) [NY304, 1-(3,3-diphenylallyl)-2-methyl-1,2,3,4-tetrahydroquinoline] | No | 2.95 µM | 0.751 | – | – | – | – | – | –
C(CN1CCC(c2ccccc2)CC1)=C(c1ccccc1)c1ccccc1 [NY306, 1-(3,3-diphenylallyl)-4-phenylpiperidine] | No | 3.95 µM | 0.893 | – | – | – | – | – | –
C(CN1CCN(c2ccccc2)CC1)=C(c1ccccc1)c1ccccc1 [NY307, 1-(3,3-diphenylallyl)-4-phenylpiperazine] | No | 4.2 µM | 0.858 | – | – | – | – | – | –
COc1ccc([C@@H](C)N(CC=C(c2ccccc2)c2ccccc2)C(=O)C(C)F)cc1 (stereo partly drawn) [NY314, N-(3,3-diphenylallyl)-2-fluoro-N-((R)-1-(4-methoxyphenyl)ethyl)propanamide] | No | 1.69 µM | 0.842 | – | – | – | – | – | –
COc1ccc([C@@H](C)N(CC=C(c2ccccc2)c2ccccc2)CCF)cc1 [NY315, (R)-N-(2-fluoroethyl)-N-(1-(4-methoxyphenyl)ethyl)-3,3-diphenylprop-2-en-1-amine] | No | 10.1 µM | 0.52 ± 0.04 | 20 fold | – | – | – | – | –
COc1ccc([C@@H](C)N(CC=C(c2ccccc2)c2ccccc2)CCN2CCOCC2)cc1 [NY316, (R)-N-(1-(4-methoxyphenyl)ethyl)-N-(2-morpholinoethyl)-3,3-diphenylprop-2-en-1-amine] | No | 4.4 µM | 0.86 ± 0.02 | – | – | – | – | – | –
COc1ccc([C@@H](C)N(CC=C(c2ccccc2)c2ccccc2)CCN2CCNC(=O)C2)cc1 [NY325, (R)-4-(2-((3,3-diphenylallyl)(1-(4-methoxyphenyl)ethyl)amino)ethyl) piperazin-2-one] | No | 7.7 µM | 0.81 ± 0.02 | – | – | – | – | 6 fold | –
COc1ccc([C@@H](C)N(CC=C(c2ccccc2)c2ccccc2)CCN2CCCCC2)cc1 [NY329, (R)-N-(1-(4-methoxyphenyl)ethyl)-3,3-diphenyl-N-(2-(piperidin-1-yl)ethyl)prop-2-en-1-amine] | Yes | 0.6 µM | 0.83 ± 0.02 | – | – | – | – | – | –
COc1ccc([C@@H](C)N(CC=C(c2ccccc2)c2ccccc2)CCN2CCN(C(=O)OC(C)(C)C)CC2)cc1 [NY345, (R)-tert-butyl 4-(2-((3,3-diphenylallyl)(1-(4-methoxyphenyl)ethyl)amino)ethyl) piperazine-1-carboxylate] | No | 0.329 µM | 0.819 | – | – | – | – | – | –
COc1ccc([C@@H](C)N(C/C=C/c2ccccc2)CCN2CCN(C)CC2)cc1 [NY346, (R,E)-N-(1-(4-methoxyphenyl)ethyl)-N-(2-(4-methylpiperazin-1-yl)ethyl)-3-phenylprop-2-en-1-amine] | No | 14.8 µM | 0.84 ± 0.01 | – | – | – | – | – | complete loss of in vitro activity
